Molecules are shown by their SMILES. Entries after “also recorded” stand apart in the source; their conditions may differ.

Assay [1] concerns human neuroblastoma cell line SK-N-AS. The assay is described as follows: Tumoricidal effect, necrotic cells by trypan blue staining. In kind it is cell-based. To be noted: Student's t test; for potentiation of tumoricidal effect (toxicity) of cisplatin: antagonist 10 μM plus cisplatin 10 μM; for potentiation of tumoricidal effect (toxicity) of thiotepa: antagonist 10 μM plus thiotepa 10 μM; for potentiation of tumoricidal effect (toxicity) of vinblastin: antagonist 10 μM plus vinblastin 1 μM. The procedure:
(§1) Cell lines and culture. Human neuroblastoma (SKNAS), human rhabdomyosarcoma/medulloblastoma (TE671), human brain astrocytoma (MOGGCCM), human thyroid carcinoma (FTC238), human lung carcinoma (A549), human colon adenocarcinoma (LS180) and human breast carcinoma (T47D) were obtained from European Collection of Cell Cultures (ECACC), Center for Applied Microbiology & Research, Salisbury, UK. SKNAS, TE671, T47D, LS180 were grown in 1:1 mixture of Dulbecco's Modified Eagle's Medium (DMEM; D 6421, Sigma, Ca^2+-concentration 1.05 mM) and Nutrient Mixture F-12 Ham (Ham's F-12; Sigma) supplemented with 10% Foetal Bovine Serum (FBS) (GIBCO). FTC238 was grown in the same culture medium suplemented with 5% FBS. MOGGCCM and A549 were grown in 2:1 mixture of DMEM (D 6046, Sigma, Ca^2+-concentration 1.8 mM):Ham's F-12 supplemented with 10% FBS. Cultures were kept at 37° C. in a 95% air-5% CO2 atmosphere. As Ca^2+-free medium, minimum essential medium M8167 from Sigma was used.
Assessment of tumoricidal effect. Quantitation of cell death was performed at 24, 48 or 72 hrs after exposure to the agents of interest following staining of the cells with trypan blue. This stain is taken up by necrotic cells. The numbers of necrotic cells/100 counted cells served as quantitative measure for tumoricidal effect (% of tumor cell death). For each agent or combination of agents and each time point 5 wells were analysed. Comparisons between groups was performed by means of Student's t-test.
(§2) Exposure to agents. Tumor cells were exposed to the following agents and concentrations: MK 801 (10-500 μM), GYKI 52466 (10-500 μM), Cisplatin (10 μM), Vinblastin (1 μM), Thiotepa (10 μM) alone or in combination with MK 801 (10 μM), GYKI 52466 (10 μM) or NBQX (10 μM).
Data represent the mean±SEM of necrotic cells visualized by trypan blue staining (n=5/group). The potentiating effect of all three glutamate receptor antagonists was most prominent after an exposure time of 72 h. *P<0.05; **P<0.01; ***P<0.001, Student's t test.
Data represent the mean±SEM of necrotic cells visualized by trypan blue staining (n=5/group). The potentiating effect of the NMDA- and both AMPA antagonists is most prominent after an exposure time of 72 h. *P<0.05;**P<0.01;***P<0.001, Student's t test.
Data represent the mean±SEM of necrotic cells visualized by trypan blue staining (n=5/group). The potentiating effect of the NMDA- and both AMPA antagonists is most prominent after an exposure time of 48 hrs. *P<0.05;**P<0.01;***P<0.001, Student's t test.

Assay [2] has as its system human tumor cell lines (SKNAS, TE671, MOGGCCM, FTC238, A549, LS180, T47D). The assay is described as follows: MTT assay of cell viability (antiproliferative effect). In kind it is cell-based. The settings on record: 10-500 μM over 96 hrs, linear regression. The procedure: as §1
Assessment of cell viability. The yellow tetrazolium salt MTT (3-4,5-dimethylthiazol-2-2,5-diphenyltetrazolium bromid) is metabolized by viable, metabolically active cells to purple formazan crystals. Tumor cells grown in 96 well multiplates were incubated over 4 hrs with MTT solution (Cell proliferation kit I, Boehringer Mannheim, Germany). Formazan crystals were solubilized overnight, according to the manufacturer's instructions, and the product was quantified spectrophotometrically by measuring absorbance at 570 nm wave length using a VICTOR Multilabel Counter (Wallach).
as §2
Cells were exposed to either culture medium alone (control) or dizocilpine (10-500 μM) over 96 hrs and viability was measured photometrically by means of the MTT assay. Data represent mean normalized optical densities±SEM of 6-8 measurements and were analyzed by means of linear regression. Abbreviations. SKNAS: human neuroblastoma; TE671: human rhabdomyosarcoma/medulloblastoma; MOGGCCM: human brain astrocytoma; FTC238: human thyroid carcinoma; A 549: human lung carcinoma; LS180: human colon adenocarcinoma; T47D: human breast carcinoma.
Cells were exposed to either culture medium alone (control) or GYKI52466 (10-500 μM) over 96 hrs and viability was measured photometrically by means of the MTT assay. Data represent mean normalized optical densities SEM of 68 measurements and were analyzed by means of linear regression. Abbreviations. […]

As to `NS(=O)(=O)c1cccc2c1c([N+](=O)[O-])cc1nc(O)c(O)nc12` [NBQX, 2,3-dihydroxy-6-nitro-7-sulfaoylbenzo-(F)-quinoxaline], in assay [1], the “potentiation of tumoricidal effect (toxicity) of cisplatin” value (“potentiation … of cisplatin” for short) was “significantly (P<0.05-0.001) potentiated; also recorded: significantly increase toxicity”, the “potentiation of tumoricidal effect (toxicity) of thiotepa” value (from here on “potentiation … of thiotepa”) was “significantly (P<0.05-0.001) potentiated; also recorded: potentiate toxicity” and the “potentiation of tumoricidal effect (toxicity) of vinblastin” value (“potentiation … of vinblastin” for short) was “significantly (P<0.05-0.001) potentiated; also recorded: potentiate toxicity”.

Turning to `CC1=NN=C(c2ccc(N)cc2)c2cc3c(cc2C1)OCO3` [GYKI 52466], the “antiproliferative effect in human tumor cell lines (viability, MTT assay)” value (shortened to “antiproliferative effect”) in assay [2] was “concentration dependent antiproliferative effect”. The “antiproliferative effect” value in assay [2] (listed as GYK152466) is given as “significant concentration-dependent antiproliferative effect”. In assay [1], the “potentiation … of cisplatin” value was “significantly (P<0.05-0.001) potentiated; also recorded: significantly increase toxicity”, the “potentiation … of thiotepa” value is given as “significantly (P<0.05-0.001) potentiated; also recorded: potentiate toxicity” and the “potentiation … of vinblastin” value is “significantly (P<0.05-0.001) potentiated; also recorded: potentiate toxicity”.

On to `C[C@]12N[C@H](Cc3ccccc31)c1ccccc12` [MK 801], for which, in assay [2], the “antiproliferative effect” value was “significant concentration-dependent antiproliferative effect”. For the same molecule, in assay [2] (listed as (+)dizocilpine), the “antiproliferative effect” value is “concentration dependent antiproliferative effect”. Moreover, in assay [1], the “potentiation … of cisplatin” value was “significantly (P<0.05-0.001) potentiated”, the “potentiation … of thiotepa” value was “significantly (P<0.05-0.001) potentiated” and the “potentiation … of vinblastin” value is listed as “significantly (P<0.05-0.001) potentiated; also recorded: potentiate toxicity”. For the same molecule, in assay [1] (listed as MK801), the “potentiation … of cisplatin” value was “significantly increase toxicity” and the “potentiation … of thiotepa” value is given as “potentiate toxicity”.
